Results published in a melting point compilation (Tetko et al.; mined from patent text by program, amines drawn as free bases though some values may be those of a salt).

Compared with `NC(=O)N1CCN(c2nn(-c3ccc(F)cc3)c3ccccc23)CC1`, `Cc1ccc(N2C=NC(=O)C23CCN(Cc2ccccc2)CC3)cc1` is higher in melting point: 148 to 150 °C for the first, 208 to 213 °C for the second.

Compared with `NS(=O)(=O)c1cc2c(Cl)nccc2o1`, `CS(=O)(=O)N(c1cc(-c2ncc(C(F)(F)F)cc2Cl)ccc1Cl)S(C)(=O)=O` is higher in melting point: 192 to 194 °C for the first, 230 to 231 °C for the second.

First: CCCc1c(OC(=S)N(C)C)ccc2c(=O)cc(C(=O)OCC)oc12
Second: CCOC(=O)c1c(O)c2ccccc2[nH]c1=O
The melting point of the first is lower: 132 to 134 °C for the first, 173 °C for the second.

First: NC1=Nc2ccccc2Cn2cccc21
Second: NC(=O)C1CCCc2c(C(=O)c3ccccc3)cccc21 (stereo not given)
The melting point of the first is higher: 179 to 181 °C for the first, 146 to 148 °C for the second.

First: CN1CCC[C@H]1c1ccc(Cl)cc1P(c1cccc2ccccc12)c1cccc2ccccc12
Second: CC(C)c1ccc(N(Cc2cnn(CC(=O)O)c2)C(=O)C2CCCc3c(OCc4ccccc4)cccc32)cc1 (stereo not given)
The melting point of the first is higher: 224 to 226 °C for the first, 180 to 182 °C for the second.

First: O=C(O)c1c(-c2ccccc2)c2cc(Cl)c(Cl)cc2oc1=O
Second: CC(=O)Oc1ccc(C(=O)O)cc1-c1ccccc1
The melting point of the first is higher: 233 to 234 °C for the first, 185 to 187 °C for the second.

First: CCCC(=NOCC)C1=C(O)CC(c2c(C)c(C)c(O)c(C)c2C)CC1=O (stereo not given)
Second: COc1cc2[nH]c(N(C)Cc3cccc(N)c3)nc(=O)c2c(C)c1OC
The melting point of the first is lower: 134 °C for the first, 268 to 270 °C for the second.

First: COC(=O)Cn1c(C)cc(O)c([N+](=O)[O-])c1=O
Second: COC(=O)Cn1c(=O)c(=O)[nH]c2cc([N+](=O)[O-])c(Cl)cc21
The melting point of the first is lower: 187 °C for the first, over 260 °C for the second.

Compared with `CC1=C(C)C(O)N(c2nc3ccc(OC(F)(F)F)cc3s2)C1=O` (stereo not given), `N/N=C/c1ccc(-c2ncn(-c3ccc(OC(F)(F)F)cc3)n2)cc1` is lower in melting point: 228 to 231 °C for the first, 222 to 226 °C for the second.

First: FC(F)(F)c1cc(C(F)(F)F)n(-c2ccc(NCc3ccccc3Cl)cc2)n1
Second: O=c1ccc(-c2nc3ccccc3s2)cn1Cc1ccc(Cl)c(F)c1
The melting point of the first is higher: 240 °C for the first, 164 °C for the second.

Compared with `Cc1cc(N)nc(CCc2nc3cc(-c4ccc(S(=O)(=O)N5CCC5)cc4)cnc3[nH]2)c1`, `O=C(O)CCc1cc2cc(Cl)ccc2n1S(=O)(=O)c1ccc2c(c1)OCO2` is higher in melting point: 168 °C for the first, 207 °C for the second.

First: COc1cccc(NC(=O)C2=C(O)c3ccc4ccccc4c3S(=O)(=O)N2C)c1
Second: COc1ccc(-c2[nH]nc3c2C(=O)c2c(NC(N)=O)cccc2-3)cc1
The melting point of the first is lower: 242 to 244 °C for the first, 267 to 269 °C for the second.

First: CCOC(=O)c1cc2cc(F)cnc2n1Cc1ccccc1
Second: CC(C)Cn1c(CO)nc2cnc3ccccc3c21
The melting point of the first is lower: 74 to 75 °C for the first, 165 to 168 °C for the second.

First: O=c1c(-c2nnn[nH]2)coc2ccccc12
Second: Cc1cc2c([nH]1)CC(c1ccccc1)CC2=O (stereo not given)
The melting point of the first is higher: 284 to 285 °C for the first, 203 to 205 °C for the second.

First: CCCCCCCCCCCCCCOCC(C=CC(=O)N(C)C)(C=CC(=O)N(C)C)COCCCCCCCCCCCCCC
Second: CCCCCCOP(=O)(OCCCCCC)c1ccc(NC(=O)c2cccc([N+](=O)[O-])c2)cc1
The melting point of the first is lower: 59 to 61 °C for the first, 98 °C for the second.

First: COc1c(C(=O)O)cc(Cl)c(N)c1C
Second: CNc1cc(-c2ccc(Cl)cc2)nc(C(=O)OC)c1N
The melting point of the first is lower: 151 °C for the first, 178 to 200 °C for the second.

First: CNC(=O)c1ccc(C(F)(F)F)c(N)c1
Second: CNC(=O)c1ccc2cc(C(=O)O)ccc2c1
The melting point of the first is lower: 114 to 115 °C for the first, over 276 °C for the second.

First: COc1cc(OCc2ccncc2)ccc1/C=C/c1cc(/C=C/c2ccc3[nH]ccc3c2)n[nH]1
Second: N#Cc1ccc(-c2cccc(-c3nc4cc(C#N)ccc4[nH]3)c2)cc1
The melting point of the first is lower: 133 to 141 °C for the first, 303 to 304 °C for the second.

First: CNS(=O)(=O)Oc1ccc2c(c1)C(C)(C)C(OC)O2 (stereo not given)
Second: C=CC(=O)Oc1ccc(NS(C)(=O)=O)cc1
The melting point of the first is lower: 89 to 91 °C for the first, 136 to 140 °C for the second.

Compared with `O=C(NC(Cc1ccccc1)C1CC(Cc2ccccc2)=NO1)OCc1ccccc1` (stereo not given), `O=C(C=Cc1ccccc1)C(Cc1ccccc1)C(=O)C=Cc1ccccc1` (stereo not given) is higher in melting point: 87.5 to 89.5 °C for the first, 156 to 158 °C for the second.

First: N#Cc1nn(-c2c(Cl)cc(C(F)(F)F)cc2Cl)c(N)c1-c1ccoc1S(=O)C(F)(F)F (stereo not given)
Second: O=[N+]([O-])c1ccc(NS(=O)(=O)c2cccc(C(F)(F)F)c2)c(Cl)c1
The melting point of the first is higher: 141 to 142 °C for the first, 126 to 127 °C for the second.

First: Cc1noc(=O)c2ccc(NC(=O)C(C)(O)CC3(c4cccc(C(F)(F)F)c4)CC3)cc12 (stereo not given)
Second: O=C(NCCO)c1cccc(-c2cccc3cc(OCc4cccc(C(F)(F)F)c4)nn23)c1
The melting point of the first is lower: 75 to 76 °C for the first, 118 to 119 °C for the second.

First: CC1=C(C(=O)OCCN(C)Cc2ccccc2)C(c2ccccc2C#N)c2c(ccnc2OC(C)C)N1 (stereo not given)
Second: O=C1NC(=O)C(c2c[nH]c3ccccc23)=C1c1ccccc1
The melting point of the first is lower: 120 to 122 °C for the first, 256 °C for the second.

First: CC(=O)Nc1ccc2c(c1)CCCC2
Second: CC(=N)NC(=O)Nc1ccc(C)cc1
The melting point of the first is lower: 62 °C for the first, 210 to 212 °C for the second.

First: CCn1cc(C(=O)O)c(=O)c2cc(F)c(N3CCN(C)C(C)C3)cc21 (stereo not given)
Second: CSC(=S)NCc1cn(-c2ccc(N3CCOCC3)c(F)c2)nn1
The melting point of the first is higher: 244 to 246 °C for the first, 148 °C for the second.

First: O=C(O)c1ccc(C(=O)O)c2c(Br)cccc12
Second: O=C(O)Cc1c(C(=O)c2cccc(O)c2)[nH]c2cc(Cl)ccc12
The melting point of the first is higher: 288 to 290 °C for the first, 213 to 215 °C for the second.

First: CON=C(C)Cc1sc2ccc(Cl)cc2c1Cl
Second: COC(=O)Cc1ccc(OCC(C)NCC(O)c2cccc(Cl)c2)c(Cl)c1 (stereo not given)
The melting point of the first is lower: 65 to 68 °C for the first, 83 to 103 °C for the second.

First: CC(C)(C)C(=O)Nc1ccc(F)cc1-c1ccc(Cl)c(Cl)c1
Second: CC(=O)Nc1ccc(-c2coc3cc(OC(C)=O)c(O)cc3c2=O)cc1
The melting point of the first is lower: 130 to 131 °C for the first, 265 to 266 °C for the second.

First: COc1ccc2c(c1)CCC1C2CCC2(C)C=CCC12 (stereo not given)
Second: COc1cc2c(cc1O)CCC1C3=CCC(O)C3(C)CCC21 (stereo not given)
The melting point of the first is lower: 164 to 168 °C for the first, 169 to 171 °C for the second.

Compared with `CN(C)c1ccc(NS(=O)(=O)c2cccc(-c3ccc(F)cc3)c2)cc1`, `Cc1noc(C)c1S(=O)(=O)Nc1cccc(C=C2c3ccccc3CCc3ccccc32)c1` is lower in melting point: 158 to 160 °C for the first, 149 °C for the second.

Compared with `CC1Cc2c(N3C(=O)c4ccccc4C3=O)ccc(Cl)c2O1` (stereo not given), `COc1ccc2c(c1)c1c3c(c(-c4ccccc4Cl)cc1n2CCC(N)=O)C(=O)NC3=O` is higher in melting point: 197 to 198 °C for the first, 283 to 286 °C for the second.

First: C[C@H](NC(=O)c1cc(F)cc(NS(=O)(=O)CC2CN(C(c3ccc(Cl)cc3)c3ccc(Cl)cc3)C2)c1)C(N)=O
Second: COc1ccc(NS(=O)(=O)c2ccc(N3CCC(NCC(O)c4ccc(O)c(NS(C)(=O)=O)c4)CC3)cc2)cc1OC (stereo not given)
The melting point of the first is higher: 219 to 221 °C for the first, 205 to 218 °C for the second.

First: Cc1ccc(CN(O)C(N)=O)s1
Second: CCOC(=O)CC(=O)C=Cc1cccc([N+](=O)[O-])c1
The melting point of the first is higher: 134 °C for the first, 92 to 93 °C for the second.

First: Oc1cccc(O)c1Cl
Second: CC1=CC(c2cccc(Cl)c2)C2=C(CCCC2=O)N1 (stereo not given)
The melting point of the first is lower: 97 °C for the first, 201 to 203 °C for the second.

First: COCC(=O)Nc1ccc2ncnc(Nc3cccc(Br)c3)c2c1
Second: CC(CO)Oc1ccc2c(c1)c(-c1cc3cccnc3[nH]1)cn2C (stereo not given)
The melting point of the first is higher: 190 to 191 °C for the first, 164 to 165 °C for the second.

Compared with `CN1CCN(CCOc2ccc(Nc3ncc4ccc(-c5cccnc5)n4n3)cc2)CC1`, `CCN1CCN(Cc2ccc3c(c2)Cc2c(-c4cccs4)n[nH]c2-3)CC1` is higher in melting point: 107 to 110 °C for the first, 170 °C for the second.

Going from `CCCCOc1ccc(S(=O)(=O)C2(C(=O)O)CCN(CCCC)CC2)cc1` to `O=C(O)COc1ccc(CCc2ccc(N3CCNCC3)cc2)cc1`, the melting point rises from 182 °C to over 250 °C.

First: COC(=O)c1ccc(OC2=C3N=C4CCCCC4=C3C(Cc3ccc(OC)cc3)C=C2)o1 (stereo not given)
Second: O=C1C2=C(CCCC2)C(=O)N1c1cc2c(cc1F)nnn2-c1ccccc1O
The melting point of the first is lower: 79 to 80 °C for the first, 274 to 275 °C for the second.

Compared with `CNC(=O)[C@@H](N)C(C)(C)C`, `C=Cc1cccc(N2CC(CNC(=O)OC(C)(C)C)C2)n1` is lower in melting point: 90 to 93 °C for the first, 85 to 87 °C for the second.

First: CCOC(=O)c1c(N(C)C)cc(C(F)(F)F)nc1C(F)(F)F
Second: CCOCCc1nc(N)cc(=O)[nH]1
The melting point of the first is lower: 63.5 to 65 °C for the first, 167 to 170 °C for the second.

First: O=C(O)CCCCc1ccc([N+](=O)[O-])cn1
Second: C=CCCCc1cnc(-c2ccc(F)cc2)nc1
The melting point of the first is higher: 105 to 107 °C for the first, 21.8 °C for the second.

Compared with `COc1ccc2nc(-n3ccnc3)nc(NCCS(C)=O)c2c1` (stereo not given), `COc1cc2ccccc2cc1-c1nc(N)nc(N)n1` is higher in melting point: 238 to 242 °C for the first, 243 to 244 °C for the second.

Compared with `COc1nc(C)nc(NC(=O)NS(=O)(=O)c2c(C3=NOCCO3)csc2C)n1`, `COc1ccc2c(c1O)N=CC1CCCN1C2=O` (stereo not given) is lower in melting point: 200 °C for the first, 150 to 153 °C for the second.

First: O=C(O)c1ccc(-c2ccc(-c3cc(-c4ccc(-c5ccc(C(=O)O)cc5)cc4)cc(-c4ccc(-c5ccc(C(=O)O)cc5)cc4)c3)cc2)cc1
Second: COC(=O)C(CSC(c1ccccc1)c1ccccc1)NC(=O)C(=O)NCCSC(c1ccccc1)c1ccccc1 (stereo not given)
The melting point of the first is higher: 326 °C for the first, 131 °C for the second.

First: COc1cc(I)c(C=O)cc1OC
Second: O=[N+]([O-])c1cc(Br)ccc1-c1ccccc1F
The melting point of the first is higher: 139 to 141 °C for the first, 42 to 45 °C for the second.

First: CSCCCCn1c(C)nc2c(N)nc3ccccc3c21
Second: CC(C)(C)OC(=O)[C@@H]1CC[C@H](CC(=O)O)N1Cc1ccccc1
The melting point of the first is higher: 190 to 193 °C for the first, 95 to 96 °C for the second.

First: c1ccc2c(c1)N[C@H]1CCNCC[C@@H]21 (relative stereo)
Second: COC(=O)c1ccc(C(=O)C2CCC3=C(N=C(C(C)C)C(C(C)C)N3)C2=O)cc1 (stereo not given)
The melting point of the first is higher: 102 to 114 °C for the first, 82 to 84 °C for the second.

First: CC1(CO)CCC2(CC1)OCCO2
Second: COC1C(C)OC(OC2CC(C)(O)C(C(=O)O)c3cc4c(c(O)c32)C(=O)c2c(O)cc3c(c2C4=O)OC2OC3(C)C(O)C(N(C)C)C2O)C(OC)C1(C)OC (stereo not given)
The melting point of the first is lower: 42 to 43 °C for the first, 219 to 229 °C for the second.

First: O=C1c2cccc3cc4c([N+](=O)[O-])cccc4c(c23)C(=O)N1CCNCCCNCCN1C(=O)c2cccc3cc4c([N+](=O)[O-])cccc4c(c23)C1=O
Second: CCCc1ccc(Oc2c(-c3ccc(S(C)(=O)=O)cc3)cnn(CC(F)(F)F)c2=O)cc1
The melting point of the first is higher: over 340 °C for the first, 152 to 153 °C for the second.

First: S=c1nc(NCCCOc2cccc(CN3CCCCC3)c2)cc[nH]1
Second: CCCCCN(CCCCC)C(=O)C(CCC(=O)OC)CS(=O)c1ccc(Cl)c(Cl)c1 (stereo not given)
The melting point of the first is higher: 180 to 181 °C for the first, 64 to 65 °C for the second.
